Test results as given in article PMC8401404 (Molecules, 2021).
Counter-ions that a name gives are not always drawn.

What was measured:
[1] = system: human lung fibroblast cell line MRC-5; experiment: MTS cytotoxicity assay, 2D cell culture, normal lung fibroblasts; conditions: read-out: Cytotoxicity Assay IC50 ± SD; MRC-5 2D; MRC-5 normal lung fibroblasts, 2D, 72 h, MTS; n = 2
S. aureus ATCC 29213 = experiment: Broth microdilution testing (CLSI); type: cell-based, Staphylococcus aureus; conditions: broth microdilution, 16–24h at 37 °C; read-out: MIC S. aureus ATCC 29213
Method: (§1) Broth microdilution testing was performed according to CLSI (Clinical Laboratory Standards Institute) guidelines. MIC (minimal inhibitory concentration) value was defined as the last tested concentration of compound at which there is no visible growth of bacteria. […] Clinical and Laboratory Standards Institute (CLSI) guidelines.

E. coli ATCC 25922 = experiment: Broth microdilution testing (CLSI); type: cell-based, Escherichia coli; conditions: broth microdilution, 16–24h at 37 °C; read-out: MIC E. coli ATCC 25922
Method: as §1

NCI-H358 [2] = experiment: MTS cytotoxicity assay, 2D cell culture; conditions: read-out: Cytotoxicity Assay IC50 ± SD; NCI-H358 2D, 72 h, MTS; n = 2
A549 [3] = experiment: MTS cytotoxicity assay, 2D cell culture; conditions: read-out: Cytotoxicity Assay IC50 ± SD; A549 2D, 72 h, MTS; n = 2
HCC827 [4] = experiment: MTS cytotoxicity assay, 2D cell culture; conditions: read-out: Cytotoxicity Assay IC50 ± SD; HCC827 2D, 72 h, MTS; n = 2
NCI-H358 [5] = experiment: Cytotoxicity (viability) assay, 3D hanging drop cell culture; conditions: read-out: Cytotoxicity Assay IC50 ± SD; NCI-H358 3D; NCI-H358, 3D hanging drop spheres, 72 h; n = 2
A549 [6] = experiment: as above; conditions: read-out: Cytotoxicity Assay IC50 ± SD; A549 3D; A549, 3D hanging drop spheres, 72 h; n = 2
HCC827 [7] = experiment: as above; conditions: read-out: Cytotoxicity Assay IC50 ± SD; HCC827 3D; HCC827, 3D hanging drop spheres, 72 h; n = 2
NCI-H358 [8] = experiment: BrdU proliferation assay, 2D cell culture; type: cell-based, human; conditions: NCI-H358, 2D, n = 2, read-out: Proliferation Assay IC50 ± SD
A549 [9] = experiment: BrdU proliferation assay, 2D cell culture; type: cell-based, human; conditions: A549, 2D, BrdU, n = 2, read-out: Proliferation Assay IC50 ± SD
HCC827 [10] = experiment: BrdU proliferation assay, 2D cell culture; type: cell-based, human; conditions: HCC827, 2D, BrdU, n = 2, read-out: Proliferation Assay IC50 ± SD
NCI-H358 [11] = experiment: BrdU proliferation assay, 3D hanging drop cell culture; type: cell-based, human; conditions: NCI-H358, 3D, n = 2, read-out: Proliferation Assay IC50 ± SD
A549 [12] = experiment: as above; type: cell-based, human; conditions: A549, 3D, BrdU, n = 2, read-out: Proliferation Assay IC50 ± SD
HCC827 [13] = experiment: as above; type: cell-based, human; conditions: HCC827, 3D, BrdU, n = 2, read-out: Proliferation Assay IC50 ± SD
S. cerevisiae ATCC 7752 = experiment: Broth microdilution testing (CLSI); type: cell-based, Saccharomyces cerevisiae; conditions: broth microdilution, 16–24h at 37 °C; read-out: MIC S. cerevisiae ATCC 7752
Method: as §1

[14] = system: poly(dAdT)2 (DNA, polymer) AT; experiment: CD titration; conditions: Na+ (sodium cacodylate, I = 0.05 M), pH 7.0, 25 °C, polynucleotide 3.0 × 10^-5 M
[15] = system: poly(dAdT)2 (DNA, polymer) AT; experiment: UV thermal melting at 260 nm; conditions: Na+ (sodium cacodylate, I = 0.05 M), pH 7.0, r = [compound]/[polynucleotide phosphate] = 0.3, error ±0.5, per base
[16] = system: poly dA-poly dT (DNA, polymer) A/T; experiment: CD titration; conditions: Na+ (sodium cacodylate, I = 0.05 M), pH 7.0, 25 °C, polynucleotide 3.0 × 10^-5 M
[17] = system: poly dA-poly dT (DNA, polymer) A/T; experiment: UV thermal melting at 260 nm; conditions: Na+ (sodium cacodylate, I = 0.05 M), pH 7.0, r = [compound]/[polynucleotide phosphate] = 0.3, error ±0.5, per base

N#CC(=Cc1ccc(-c2ccc([N+](=O)[O-])cc2)o1)c1nc2cc([N+](=O)[O-])ccc2[nH]1 [Compound 18, (E,Z)-2-(5(6)-Nitrobenzimidazol-2-yl)-3-[5-(4-nitrophenyl)furan-2-yl]acrylonitrile]
IC50 [1]: > 50 µM | MIC (S. aureus ATCC 29213): >100 µM | MIC (E. coli ATCC 25922): >100 µM | IC50 (NCI-H358 [2]): 3.5 ± 1.14 µM | IC50 (A549 [3]): > 50 µM | IC50 (HCC827 [4]): > 50 µM | IC50 (NCI-H358 [5]): > 100 µM | IC50 (A549 [6]): > 100 µM | IC50 (HCC827 [7]): > 100 µM | IC50 (NCI-H358 [8]): > 50 µM | IC50 (A549 [9]): > 50 µM | IC50 (HCC827 [10]): > 50 µM | IC50 (NCI-H358 [11]): > 100 µM | IC50 (A549 [12]): > 100 µM | IC50 (HCC827 [13]): > 100 µM | MIC (S. cerevisiae ATCC 7752): >100 µM

Clc1ccc(-c2ccc(-c3nc4cc(C5=NCCN5)ccc4[nH]3)o2)cc1 (as salt: hydrochloride) [Compound 15, 2-[5-(4-Chlorophenyl)furan-2-yl]-5(6)-(4,5-dihydro-1H-imidazol-2-yl)benzimidazole hydrochloride]
binding [14]: yes | ΔTm [15]: 6.2 °C | melting point: 262 to 269 °C | binding [16]: yes | ΔTm [17]: 11.7 °C
